These results are taken from patent publication US20090232838A1, “Ligands of melanocortin receptors” (priority 2005, published 2009).

Holding throughout (type): cell-based
Test [1] addresses T1, hMC4-R (Homo sapiens, UniProt P32245).
T1 construct: expressed in transfected cells; host or cells: CHO-K1
The test is described as follows: cyclic AMP bioassay, hMC4-R.

The target in test [2] is T2, hMC1-R (Homo sapiens, UniProt Q01726).
T2 construct: expressed in transfected cells; host or cells: CHO-K1
T2 sequence (Q01726 whole entry): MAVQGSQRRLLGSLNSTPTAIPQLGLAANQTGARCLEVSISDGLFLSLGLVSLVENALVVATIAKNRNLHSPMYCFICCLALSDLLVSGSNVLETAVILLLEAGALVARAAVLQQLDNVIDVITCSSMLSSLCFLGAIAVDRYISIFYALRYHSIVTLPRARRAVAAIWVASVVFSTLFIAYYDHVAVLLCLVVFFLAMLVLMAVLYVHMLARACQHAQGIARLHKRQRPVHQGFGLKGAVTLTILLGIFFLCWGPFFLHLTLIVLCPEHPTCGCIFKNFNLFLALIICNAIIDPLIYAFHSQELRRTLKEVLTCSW
Put plainly: cyclic AMP bioassay, hMC1-R.

Test [3] deals with T3, hMC5-R (Homo sapiens, UniProt P33032).
T3 construct: expressed in transfected cells; host or cells: CHO-K1
T3 sequence (P33032 whole entry): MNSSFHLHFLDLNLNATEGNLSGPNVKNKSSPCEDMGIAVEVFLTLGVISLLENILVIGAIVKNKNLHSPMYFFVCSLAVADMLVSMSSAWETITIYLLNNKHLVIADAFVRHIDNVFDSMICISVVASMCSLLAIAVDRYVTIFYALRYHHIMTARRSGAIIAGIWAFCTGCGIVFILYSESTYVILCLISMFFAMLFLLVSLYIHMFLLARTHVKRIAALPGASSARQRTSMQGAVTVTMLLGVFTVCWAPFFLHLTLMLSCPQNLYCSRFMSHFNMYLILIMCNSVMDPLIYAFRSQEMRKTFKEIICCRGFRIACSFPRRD
The test is described as follows: cyclic AMP bioassay, hMC5-R.

Test [4] deals with T4, hMC3-R (Homo sapiens, UniProt P41968).
T4 construct: expressed in transfected cells; host or cells: CHO-K1
T4 sequence (P41968 whole entry): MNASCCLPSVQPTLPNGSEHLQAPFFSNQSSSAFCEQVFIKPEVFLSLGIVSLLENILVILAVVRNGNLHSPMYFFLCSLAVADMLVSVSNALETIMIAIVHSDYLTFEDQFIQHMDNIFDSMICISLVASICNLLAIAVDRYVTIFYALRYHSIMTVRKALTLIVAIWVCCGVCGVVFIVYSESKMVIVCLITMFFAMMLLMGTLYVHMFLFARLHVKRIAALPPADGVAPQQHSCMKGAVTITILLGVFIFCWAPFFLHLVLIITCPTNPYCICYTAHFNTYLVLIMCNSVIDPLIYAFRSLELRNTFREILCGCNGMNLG
The test is described as follows: cyclic AMP bioassay, hMC3-R.

Where a SMILES comes first, the peptide text is derived from it. Bridges are numbered along the chain shown (N, C = ends). [ ]: non-standard residue; d: D form. d2Nal = N[C@H](Cc1ccc2ccccc2c1)C(=O)O; Bta = N[C@@H](Cc1csc2ccccc12)C(=O)O

For orientation: EC50 means the concentration needed to bring the measured effect to its halfway point. Low values mean greater potency, high ones weaker potency.

T1 sequence (P32245 whole entry): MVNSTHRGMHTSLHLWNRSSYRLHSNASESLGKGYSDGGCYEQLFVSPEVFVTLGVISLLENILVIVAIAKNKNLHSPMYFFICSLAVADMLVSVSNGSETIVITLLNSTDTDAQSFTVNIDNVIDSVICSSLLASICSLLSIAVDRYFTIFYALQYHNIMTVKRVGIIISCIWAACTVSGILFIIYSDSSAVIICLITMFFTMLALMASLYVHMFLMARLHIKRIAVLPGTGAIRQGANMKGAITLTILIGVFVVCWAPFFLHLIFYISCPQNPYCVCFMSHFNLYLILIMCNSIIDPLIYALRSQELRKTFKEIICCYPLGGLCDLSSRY

On to `CC(=O)N[C@H]1CSSC[C@@H](C(=O)N2CCC[C@H]2C(=O)N2CCC[C@H]2C(=O)N[C@@H](CCCCN)C(=O)N[C@@H](CC(=O)O)C(N)=O)NC(=O)[C@H](C)NC(=O)[C@H](Cc2csc3ccccc23)NC(=O)[C@H](CCCNC(=N)N)NC(=O)[C@@H](Cc2ccc3ccccc3c2)NC(=O)[C@H](Cc2c[nH]cn2)NC(=O)[C@H](CCC(=O)O)NC1=O` [Ac-c(Cys-Glu-His-D-2-Nal-Arg-Bal-Ala-Cys)-Pro-Pro-Lys-Asp-NH2] (Ac-CEH[d2Nal]R[Bta]ACPPKD-NH2; disulfide 1-8), for which the Kb in test [1] was found to be 4.56 nM; in test [4], 70.7 nM. Besides, the EC50 in test [2] is 690 nM; in test [3], 177 nM.
Consider `CCCC[C@H](NC(C)=O)C(=O)N[C@H]1CSSC[C@@H](C(=O)NCCC(=O)N[C@@H](Cc2ccc(O)cc2)C(=O)NCC(=O)N[C@@H](CCCNC(=N)N)C(=O)N[C@@H](CCCCN)C(=O)N[C@@H](CCCNC(=N)N)C(=O)N[C@@H](CCCNC(=N)N)C(=O)N[C@@H](CCCNC(=N)N)C(=O)N[C@@H](CCC(N)=O)C(=O)N[C@@H](CCCNC(=N)N)C(=O)N[C@@H](CCCNC(=N)N)C(=O)N[C@@H](CCCNC(=N)N)C(N)=O)NC(=O)[C@H](Cc2c[nH]c3ccccc23)NC(=O)[C@H](CCCNC(=N)N)NC(=O)[C@@H](Cc2ccccc2)NC(=O)[C@H](Cc2c[nH]cn2)NC(=O)[C@@H](C)NC1=O`, for which the EC50 amounted to 0.6 nM in test [1], 7.57 nM in test [2], 1790 nM in test [3] and 4.18 nM in test [4].
Regarding `CCCC[C@H](NC(C)=O)C(=O)N[C@H]1CSSC[C@@H](C(=O)NCCC(=O)NCC(=O)N[C@@H](CCCNC(=N)N)C(=O)N[C@@H](CCCNC(=N)N)C(=O)N[C@@H](CCCCN)C(=O)N[C@@H](CCCNC(=N)N)C(=O)N[C@@H](CCCNC(=N)N)C(=O)N[C@@H](CCC(N)=O)C(=O)N[C@@H](CCCNC(=N)N)C(=O)N[C@@H](CCCNC(=N)N)C(=O)N[C@@H](CCCNC(=N)N)C(N)=O)NC(=O)[C@H](Cc2c[nH]c3ccccc23)NC(=O)[C@H](CCCNC(=N)N)NC(=O)[C@@H](Cc2ccccc2)NC(=O)[C@H](Cc2c[nH]cn2)NC(=O)[C@@H](C)NC1=O`, the EC50 in test [1] was 0.26 nM; in test [2], 2.36 nM; in test [3], 500 nM; in test [4], 2.74 nM.
In the case of `CC(=O)N[C@H]1CSSC[C@@H](C(=O)N2CCC[C@H]2C(=O)N2CCC[C@H]2C(=O)N[C@@H](CCCCN)C(=O)N[C@@H](CC(=O)O)C(=O)NCCC(=O)N[C@@H](CCCNC(=N)N)C(=O)N[C@@H](CCCNC(=N)N)C(=O)N[C@@H](CCCCN)C(=O)N[C@@H](CCCNC(=N)N)C(=O)N[C@@H](CCCNC(=N)N)C(=O)N[C@@H](CCC(N)=O)C(=O)N[C@@H](CCCNC(=N)N)C(=O)N[C@@H](CCCNC(=N)N)C(=O)N[C@@H](CCCNC(=N)N)C(N)=O)NC(=O)[C@H](C)NC(=O)[C@H](Cc2cccc3ccccc23)NC(=O)[C@H](CCCNC(=N)N)NC(=O)[C@@H](Cc2ccc3ccccc3c2)NC(=O)[C@H](Cc2c[nH]cn2)NC(=O)[C@H](CCC(=O)O)NC1=O`, the Kb in test [1] is 18.6 nM; in test [4], 286 nM. The values for the EC50 in test [2] and in test [3] were 70.4 nM and above 10000 nM, respectively.
Regarding `CC(=O)N[C@H]1CSSC[C@@H](C(=O)N2CCC[C@H]2C(=O)N2CCC[C@H]2C(=O)N[C@@H](CCCCN)C(=O)N[C@@H](CC(=O)O)C(=O)NCCC(=O)N[C@@H](CCCNC(=N)N)C(=O)N[C@@H](CCCNC(=N)N)C(=O)N[C@@H](CCCNC(=N)N)C(=O)N[C@@H](CCCNC(=N)N)C(=O)N[C@@H](CCCNC(=N)N)C(=O)N[C@@H](CCCNC(=N)N)C(=O)N[C@@H](CCC(N)=O)C(=O)N[C@@H](CCCNC(=N)N)C(=O)N[C@@H](CCCNC(=N)N)C(=O)N[C@@H](CCCNC(=N)N)C(N)=O)NC(=O)[C@H](C)NC(=O)[C@H](Cc2cccc3ccccc23)NC(=O)[C@H](CCCNC(=N)N)NC(=O)[C@@H](Cc2ccc3ccccc3c2)NC(=O)[C@H](Cc2c[nH]cn2)NC(=O)[C@H](CCC(=O)O)NC1=O`, the figures for the Kb in test [1] and in test [4] were 15.9 nM and 71 nM, respectively. In addition, the 50% effective concentration (EC50) is 93 nM in test [2] and above 10000 nM in test [3].
`CC(=O)N[C@H]1CSSC[C@@H](C(=O)N2CCC[C@H]2C(=O)N2CCC[C@H]2C(=O)N[C@@H](CCCCN)C(=O)N[C@@H](CC(=O)O)C(=O)NCCC(=O)NCC(=O)N[C@@H](CCCNC(=N)N)C(=O)N[C@@H](CCCNC(=N)N)C(=O)N[C@@H](CCCCN)C(=O)N[C@@H](CCCNC(=N)N)C(=O)N[C@@H](CCCNC(=N)N)C(=O)N[C@@H](CCC(N)=O)C(=O)N[C@@H](CCCNC(=N)N)C(=O)N[C@@H](CCCNC(=N)N)C(=O)N[C@@H](CCCNC(=N)N)C(N)=O)NC(=O)[C@H](C)NC(=O)[C@H](Cc2cccc3ccccc23)NC(=O)[C@H](CCCNC(=N)N)NC(=O)[C@@H](Cc2ccc3ccccc3c2)NC(=O)[C@H](Cc2c[nH]cn2)NC(=O)[C@H](CCC(=O)O)NC1=O`: the Kb in test [1] came out at 9.34 nM; in test [4] it was 101 nM. For the same molecule, the figures for the EC50 in test [2] and in test [3] were 26.6 nM and 351 nM, respectively.
On to `CC(=O)N[C@H]1CSSC[C@@H](C(=O)N2CCC[C@H]2C(=O)N2CCC[C@H]2C(=O)N[C@@H](CCCCN)C(=O)N[C@@H](CC(=O)O)C(=O)NCCC(=O)NCC(=O)N[C@@H](CCCNC(=N)N)C(=O)N[C@@H](CCCNC(=N)N)C(=O)N[C@@H](CCCCN)C(=O)N[C@@H](CCCNC(=N)N)C(=O)N[C@@H](CCCNC(=N)N)C(=O)N[C@@H](CCC(N)=O)C(=O)N[C@@H](CCCNC(=N)N)C(=O)N[C@@H](CCCNC(=N)N)C(=O)N[C@@H](CCCNC(=N)N)C(N)=O)NC(=O)[C@H](C)NC(=O)[C@H](Cc2ccc3ccccc3c2)NC(=O)[C@H](CCCNC(=N)N)NC(=O)[C@@H](Cc2ccc3ccccc3c2)NC(=O)[C@H](Cc2c[nH]cn2)NC(=O)[C@H](CCC(=O)O)NC1=O`, for which the Kb in test [1] and in test [4] was 12.7 nM in each case. In addition, the figures for the EC50 in test [2] and in test [3] were 45.4 nM and 162 nM, respectively.
Regarding `CCCC[C@H](NC(C)=O)C(=O)N[C@H]1CSSC[C@@H](C(=O)NCCOCCOCC(=O)NCCOCCOCC(=O)N[C@@H](Cc2ccc(O)cc2)C(=O)NCC(=O)N[C@@H](CCCNC(=N)N)C(=O)N[C@@H](CCCCN)C(=O)N[C@@H](CCCCN)C(=O)N[C@@H](CCCNC(=N)N)C(=O)N[C@@H](CCCNC(=N)N)C(=O)N[C@@H](CCC(N)=O)C(=O)N[C@@H](CCCNC(=N)N)C(=O)N[C@@H](CCCNC(=N)N)C(=O)N[C@@H](CCCNC(=N)N)C(N)=O)NC(=O)[C@H](Cc2c[nH]c3ccccc23)NC(=O)[C@H](CCCNC(=N)N)NC(=O)[C@@H](Cc2ccccc2)NC(=O)[C@H](Cc2c[nH]cn2)NC(=O)[C@@H](C)NC1=O`, the EC50 in test [1] was 0.634 nM; in test [2], 4.7 nM; in test [3] it was 147 nM; in test [4], 4.56 nM.
Consider `CC(=O)N[C@H]1CSSC[C@@H](C(=O)N2CCC[C@H]2C(=O)N2CCC[C@H]2C(=O)N[C@@H](CCCCN)C(=O)N[C@@H](CC(=O)O)C(=O)NCCC(=O)N[C@@H](CCCNC(=N)N)C(=O)N[C@@H](CCCNC(=N)N)C(=O)N[C@@H](CCCCN)C(=O)N[C@@H](CCCNC(=N)N)C(=O)N[C@@H](CCCNC(=N)N)C(=O)N[C@@H](CCC(N)=O)C(=O)N[C@@H](CCCNC(=N)N)C(=O)N[C@@H](CCCNC(=N)N)C(=O)N[C@@H](CCCNC(=N)N)C(N)=O)NC(=O)[C@H](C)NC(=O)[C@H](Cc2ccc3ccccc3c2)NC(=O)[C@H](CCCNC(=N)N)NC(=O)[C@@H](Cc2ccc3ccccc3c2)NC(=O)[C@H](Cc2c[nH]cn2)NC(=O)[C@H](CCC(=O)O)NC1=O`, for which the figures for the Kb in test [1] and in test [4] were 17.4 nM and 10.6 nM, respectively. The EC50 in test [2] came to 88.2 nM; in test [3], 514 nM.
The matching figures for `CC(=O)N[C@H]1CSSC[C@@H](C(=O)N2CCC[C@H]2C(=O)N2CCC[C@H]2C(=O)N[C@@H](CCCCN)C(=O)N[C@@H](CC(=O)O)C(=O)NCCC(=O)N[C@@H](Cc2ccc(O)cc2)C(=O)NCC(=O)N[C@@H](CCCNC(=N)N)C(=O)N[C@@H](CCCCN)C(=O)N[C@@H](CCCCN)C(=O)N[C@@H](CCCNC(=N)N)C(=O)N[C@@H](CCCNC(=N)N)C(=O)N[C@@H](CCCNC(=N)N)C(=O)N[C@@H](CCCNC(=N)N)C(=O)N[C@@H](CCCNC(=N)N)C(=O)N[C@@H](CCC(N)=O)C(N)=O)NC(=O)[C@H](C)NC(=O)[C@H](Cc2c[nH]c3ccccc23)NC(=O)[C@H](CCCNC(=N)N)NC(=O)[C@@H](Cc2ccc3ccccc3c2)NC(=O)[C@H](Cc2c[nH]cn2)NC(=O)[C@H](CCC(=O)O)NC1=O`: 7.61 nM, 12.2 nM, 7.5 nM and 51.7 nM.
As for `CC(=O)N[C@H]1CSSC[C@@H](C(=O)N2CCC[C@H]2C(=O)N2CCC[C@H]2C(=O)N[C@@H](CCCCN)C(=O)N[C@@H](CC(=O)O)C(=O)NCCC(=O)N[C@@H](Cc2ccc(O)cc2)C(=O)NCC(=O)N[C@@H](CCCNC(=N)N)C(=O)N[C@@H](CCCNC(=N)N)C(=O)N[C@@H](CCCCN)C(=O)N[C@@H](CCCNC(=N)N)C(=O)N[C@@H](CCCNC(=N)N)C(=O)N[C@@H](CCC(N)=O)C(=O)N[C@@H](CCCNC(=N)N)C(=O)N[C@@H](CCCNC(=N)N)C(=O)N[C@@H](CCCNC(=N)N)C(N)=O)NC(=O)[C@H](C)NC(=O)[C@H](Cc2cccc3ccccc23)NC(=O)[C@H](CCCNC(=N)N)NC(=O)[C@@H](Cc2ccc3ccccc3c2)NC(=O)[C@H](Cc2c[nH]cn2)NC(=O)[C@H](CCC(=O)O)NC1=O`, the Kb was determined as 16.7 nM in test [1] and 22.6 nM in test [4]. Moreover, the concentration for a half-maximal effect (EC50) in test [2] is 29 nM; in test [3] it was 173 nM.
